# Source: PubChem BioAssay (NCI)
#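 Cultured in 96-well plates, cells were exposed to test compound for 48 hours across five concentrations. GI50: concentration for 50% inhibition of growth. TGI marks complete inhibition of growth.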
# Assays:
# Assay in all cases: NCI anticancer screen, dose series, 48 h
# KM12 colon = tested on: KM12 colon
# COLO 205 colon = tested on: COLO 205 colon
# SN12C renal = tested on: SN12C renal
# LOX IMVI melanoma = tested on: LOX IMVI melanoma
# HOP-62 NSCLC = tested on: HOP-62 NSCLC
# UACC-257 melanoma = tested on: UACC-257 melanoma
# SK-MEL-28 melanoma = tested on: SK-MEL-28 melanoma
# 786-0 renal = tested on: 786-0 renal
# SW-620 colon = tested on: SW-620 colon
# MDA-MB-231 breast = tested on: MDA-MB-231 breast
compound,measurement,setting,value
Cc1c(-c2nnc(-c3ccccc3)o2)c(=O)n(-c2ccccc2)n1C,TGI,KM12 colon,> 100 µM
same,TGI,COLO 205 colon,> 100 µM
same,TGI,SN12C renal,> 100 µM
same,TGI,LOX IMVI melanoma,> 100 µM
same,TGI,HOP-62 NSCLC,> 100 µM
same,TGI,UACC-257 melanoma,> 100 µM
same,TGI,SK-MEL-28 melanoma,> 100 µM
same,TGI,786-0 renal,> 100 µM
same,TGI,SW-620 colon,> 100 µM
O=C1C2=C(SCCS2)C(=O)c2c(Sc3ccc(Cl)cc3)c(Sc3ccc(Cl)cc3)c(Sc3ccc(Cl)cc3)c(Sc3ccc(Cl)cc3)c21,TGI,MDA-MB-231 breast,85.3 µM
same,TGI,KM12 colon,> 100 µM
same,TGI,COLO 205 colon,> 100 µM
same,TGI,SN12C renal,> 100 µM
same,TGI,HOP-62 NSCLC,> 100 µM
same,TGI,UACC-257 melanoma,> 100 µM
same,TGI,786-0 renal,> 100 µM
same,TGI,SW-620 colon,> 100 µM
O=C(O)CNC(=O)c1ccc2cc(C(=O)N3CC(CCl)c4ccc([N+](=O)[O-])cc43)[nH]c2c1 (stereo not drawn),TGI,MDA-MB-231 breast,> 100 µM
same,TGI,KM12 colon,> 100 µM
same,TGI,COLO 205 colon,> 100 µM
same,TGI,SN12C renal,> 100 µM
same,TGI,LOX IMVI melanoma,> 100 µM
same,TGI,UACC-257 melanoma,> 100 µM
same,TGI,786-0 renal,> 100 µM
same,TGI,SW-620 colon,> 100 µM
Cn1ccnc1CCc1ccc(Cl)c(Cl)c1,TGI,KM12 colon,> 100 µM
same,TGI,COLO 205 colon,> 100 µM
same,TGI,SN12C renal,> 100 µM
same,TGI,LOX IMVI melanoma,> 100 µM
same,TGI,HOP-62 NSCLC,> 100 µM
same,TGI,UACC-257 melanoma,> 100 µM
same,TGI,SK-MEL-28 melanoma,> 100 µM
same,TGI,786-0 renal,> 100 µM
same,TGI,SW-620 colon,> 100 µM
Nc1nc(=O)n(C2OC(CO)C(O)C2O)c2ncc(-c3ccc(-c4ccccc4)cc3)nc12 (stereo not drawn),TGI,MDA-MB-231 breast,57.7 µM
same,TGI,KM12 colon,> 100 µM
same,TGI,COLO 205 colon,> 100 µM
same,TGI,SN12C renal,> 100 µM
same,TGI,LOX IMVI melanoma,> 100 µM
same,TGI,HOP-62 NSCLC,> 100 µM
same,TGI,UACC-257 melanoma,> 100 µM
same,TGI,786-0 renal,> 100 µM
same,TGI,SW-620 colon,> 100 µM
COc1c(C)c(C/C=C(\C)CC/C=C(\C)CC/C=C(\C)CCC=C(C)C)c(OC)c2ccccc12,TGI,MDA-MB-231 breast,> 100 µM
same,TGI,KM12 colon,> 100 µM
same,TGI,COLO 205 colon,> 100 µM
same,TGI,SN12C renal,> 100 µM
same,TGI,LOX IMVI melanoma,> 100 µM
same,TGI,HOP-62 NSCLC,> 100 µM
same,TGI,UACC-257 melanoma,> 100 µM
same,TGI,786-0 renal,> 100 µM
same,TGI,SW-620 colon,> 100 µM
CN(Cc1cnc2nc(N)nc(N)c2n1)c1ccc(C(=O)NC(CCC(=O)NC(CC(P(=O)(O)O)P(=O)(O)O)C(=O)O)C(=O)O)cc1 (stereo not drawn),TGI,MDA-MB-231 breast,> 100 µM
same,TGI,COLO 205 colon,> 100 µM
same,TGI,SN12C renal,> 100 µM
same,TGI,LOX IMVI melanoma,> 100 µM
same,TGI,HOP-62 NSCLC,> 100 µM
same,TGI,UACC-257 melanoma,> 100 µM
same,TGI,SK-MEL-28 melanoma,> 100 µM
same,TGI,786-0 renal,> 100 µM
same,TGI,SW-620 colon,> 100 µM
O=C1CS[C@@](CC(c2ccc(Cl)cc2)c2ccc(Cl)cc2)(c2ccc(Cl)cc2)N1,TGI,KM12 colon,> 100 µM
same,TGI,COLO 205 colon,17.9 µM
same,TGI,SN12C renal,5.42 µM
same,TGI,LOX IMVI melanoma,65.4 µM
same,TGI,HOP-62 NSCLC,82 µM
same,TGI,UACC-257 melanoma,> 100 µM
same,TGI,SK-MEL-28 melanoma,> 100 µM
same,TGI,786-0 renal,71.2 µM
same,TGI,SW-620 colon,> 100 µM
CCN(CC)CCOc1ccc(C(O)(Cc2ccc(OC)cc2)c2ccccc2)cc1 (stereo not drawn),TGI,KM12 colon,36.2 µM
same,TGI,COLO 205 colon,24.9 µM
same,TGI,SN12C renal,> 100 µM
same,TGI,LOX IMVI melanoma,29 µM
same,TGI,HOP-62 NSCLC,32.5 µM
same,TGI,UACC-257 melanoma,30.3 µM
same,TGI,SK-MEL-28 melanoma,27 µM
same,TGI,786-0 renal,32.3 µM
same,TGI,SW-620 colon,34.5 µM
C[n+]1c2ccccc2c(/C=N\NS(=O)(=O)c2ccc(Cl)cc2)c2ccccc21,TGI,KM12 colon,> 100 µM
same,TGI,SN12C renal,> 100 µM
same,TGI,LOX IMVI melanoma,> 100 µM
same,TGI,HOP-62 NSCLC,> 100 µM
same,TGI,UACC-257 melanoma,> 100 µM
same,TGI,SK-MEL-28 melanoma,> 100 µM
same,TGI,786-0 renal,> 100 µM
same,TGI,SW-620 colon,> 100 µM
O=[N+]([O-])c1ccc(N2N=C(c3ccc4ccccc4c3O)CC2c2ccc(Cl)cc2)c([N+](=O)[O-])c1 (stereo not drawn),TGI,MDA-MB-231 breast,> 100 µM
same,TGI,KM12 colon,> 100 µM
same,TGI,COLO 205 colon,> 100 µM
same,TGI,SN12C renal,> 100 µM
same,TGI,HOP-62 NSCLC,> 100 µM
same,TGI,UACC-257 melanoma,> 100 µM
same,TGI,SK-MEL-28 melanoma,> 100 µM
same,TGI,786-0 renal,> 100 µM
same,TGI,SW-620 colon,> 100 µM
CC12CCC(C(=Nc3cc(C(F)(F)F)cc(C(F)(F)F)c3)C1=O)C2(C)C (stereo not drawn),TGI,MDA-MB-231 breast,> 100 µM
same,TGI,KM12 colon,91.7 µM
same,TGI,COLO 205 colon,34.1 µM
same,TGI,LOX IMVI melanoma,29.9 µM
same,TGI,HOP-62 NSCLC,> 100 µM
same,TGI,UACC-257 melanoma,> 100 µM
same,TGI,SK-MEL-28 melanoma,> 100 µM
same,TGI,786-0 renal,> 100 µM
same,TGI,SW-620 colon,> 100 µM
CC(C)(C)OC(=O)N1[C@@H]2Cc3ccc(N)cc3[C@@]1(C)c1ccccc12,TGI,MDA-MB-231 breast,75.3 µM
same,TGI,KM12 colon,> 100 µM
same,TGI,SN12C renal,30.7 µM
same,TGI,LOX IMVI melanoma,62.1 µM
same,TGI,HOP-62 NSCLC,> 100 µM
same,TGI,UACC-257 melanoma,78.2 µM
same,TGI,786-0 renal,36.2 µM
same,TGI,SW-620 colon,> 100 µM
CCCN(CCC)C1CCc2c(ccc3cc[nH]c23)C1 (stereo not drawn),TGI,MDA-MB-231 breast,> 100 µM
same,TGI,KM12 colon,> 100 µM
same,TGI,COLO 205 colon,> 100 µM
same,TGI,SN12C renal,> 100 µM
same,TGI,HOP-62 NSCLC,> 100 µM
same,TGI,UACC-257 melanoma,81.2 µM
same,TGI,SK-MEL-28 melanoma,89.4 µM
same,TGI,786-0 renal,> 100 µM
same,TGI,SW-620 colon,> 100 µM
O=C(O)CCc1ccc2c(c1)CC1(Cc3ccccc3C1)C2,TGI,MDA-MB-231 breast,> 100 µM
same,TGI,KM12 colon,> 100 µM
same,TGI,COLO 205 colon,> 100 µM
same,TGI,SN12C renal,> 100 µM
same,TGI,LOX IMVI melanoma,> 100 µM
same,TGI,HOP-62 NSCLC,> 100 µM
same,TGI,UACC-257 melanoma,> 100 µM
same,TGI,786-0 renal,> 100 µM
COc1ccc(CNc2nc3cc(C(F)(F)F)ccc3nc2-c2ccccc2)cc1OC,TGI,MDA-MB-231 breast,> 100 µM
same,TGI,KM12 colon,> 100 µM
same,TGI,COLO 205 colon,> 100 µM
same,TGI,LOX IMVI melanoma,76.8 µM
same,TGI,HOP-62 NSCLC,> 100 µM
same,TGI,UACC-257 melanoma,> 100 µM
same,TGI,786-0 renal,> 100 µM
same,TGI,SW-620 colon,> 100 µM
N[C@H](CCC(=O)NCP(=O)(O)O)C(=O)O,TGI,MDA-MB-231 breast,> 100 µM
same,TGI,KM12 colon,> 100 µM
same,TGI,COLO 205 colon,> 100 µM
same,TGI,SN12C renal,> 100 µM
same,TGI,HOP-62 NSCLC,> 100 µM
same,TGI,UACC-257 melanoma,> 100 µM
same,TGI,SK-MEL-28 melanoma,> 100 µM
same,TGI,786-0 renal,> 100 µM
same,TGI,SW-620 colon,> 100 µM
O=[N+]([O-])c1ccc([N+]2=NC(c3ccccc3)=NN(c3ccccc3)C2)cc1,TGI,KM12 colon,> 100 µM
same,TGI,COLO 205 colon,> 100 µM
same,TGI,SN12C renal,> 100 µM
same,TGI,LOX IMVI melanoma,> 100 µM
same,TGI,HOP-62 NSCLC,47.9 µM
same,TGI,UACC-257 melanoma,> 100 µM
same,TGI,SK-MEL-28 melanoma,> 100 µM
same,TGI,786-0 renal,> 100 µM
same,TGI,SW-620 colon,> 100 µM
CCC(=O)/C(=C\I)c1ccccc1,TGI,MDA-MB-231 breast,3.29 µM
same,TGI,KM12 colon,19.9 µM
same,TGI,COLO 205 colon,3.59 µM
same,TGI,SN12C renal,5.29 µM
same,TGI,LOX IMVI melanoma,2.96 µM
same,TGI,HOP-62 NSCLC,39.7 µM
same,TGI,UACC-257 melanoma,16.7 µM
same,TGI,SK-MEL-28 melanoma,6.45 µM
same,TGI,786-0 renal,3.33 µM
CCOC(=O)CCC(NC(=O)Cc1ccc(Oc2nc3ccccc3nc2-c2ccccc2)cc1)C(=O)OCC (stereo not drawn),TGI,MDA-MB-231 breast,> 100 µM
same,TGI,KM12 colon,> 100 µM
same,TGI,COLO 205 colon,> 100 µM
same,TGI,SN12C renal,> 100 µM
same,TGI,HOP-62 NSCLC,> 100 µM
same,TGI,UACC-257 melanoma,> 100 µM
same,TGI,SK-MEL-28 melanoma,> 100 µM
same,TGI,786-0 renal,> 100 µM
same,TGI,SW-620 colon,> 100 µM
CN(C)c1ccc(/C=C/C(=O)O)cc1,TGI,KM12 colon,> 100 µM
same,TGI,COLO 205 colon,> 100 µM
same,TGI,SN12C renal,> 100 µM
same,TGI,LOX IMVI melanoma,> 100 µM
same,TGI,HOP-62 NSCLC,> 100 µM
same,TGI,UACC-257 melanoma,> 100 µM
same,TGI,SW-620 colon,> 100 µM
Clc1ccc(C2CC(c3cccc(Nc4ccncc4)c3)=NN2c2cc(Cl)cc(Cl)c2)cc1 (stereo not drawn),GI50,KM12 colon,1.79 µM
same,TGI,KM12 colon,3.38 µM
same,GI50,COLO 205 colon,2.14 µM
same,TGI,COLO 205 colon,4.62 µM
same,GI50,SN12C renal,1.73 µM
same,TGI,SN12C renal,3.29 µM
same,GI50,UACC-257 melanoma,2.12 µM
same,TGI,UACC-257 melanoma,4.42 µM
same,GI50,SK-MEL-28 melanoma,1.76 µM
same,TGI,SK-MEL-28 melanoma,3.39 µM
same,GI50,SW-620 colon,1.84 µM
same,TGI,SW-620 colon,3.86 µM
